{
  "source": "patent US20220133847A1",
  "about": "“COMPOSITIONS AND METHODS FOR ALLEVIATING PAIN” (priority 2020, published 2022)",
  "key": {"T-type Ca2+ channels": {"system": "T-type Ca2+ channels", "details": "patients; cited from earlier work"}, "[1]": {"method": "FIG. 5. […] Animals were sacrificed, and tissues were harvested four hours post-injection.\nA His-tagging method was used to assess the brain-penetrance of peptide therapeutics (Westlund et al., 2021, Neurobiol Pain 10:100067). Briefly, a His-tagged TAT-C3P peptide with the sequence […] (SEQ ID NO: 3) was ordered from Genscript. Protein content was assessed with Western blots using standard methods. Briefly, the sample protein was denatured, followed by gel electrophoresis to separate proteins by molecular weight. An anti-His-tag monoclonal antibody (C-terminal A01857, GenScript) that binds to the His-tag conjugated to the TAT-C3P peptide or anti-β-actin antibody (ab8226, Abcam, Cambridge, United Kingdom) was applied to the electrophoresis membrane. After washing off the antibody, specific secondary antibodies were added which recognized and bound to the primary antibodies. The secondary antibody was visualized through immunofluorescence probe attached to the secondary antibody, allowing indirect detection, validation, and semi-quantitative assessment of the specific target protein."}, "[2]": {"details": "in vivo"}, "Cav3.3": {"target": "T1, Cav3.3 (Mus musculus, UniProt E9Q7P2)", "T1 construct": "Western blot analysis of Cav3.3 protein levels from whole TG lysates was performed; from tissue; host or cells: mouse trigeminal ganglia (FRICT-ION model)", "T1 sequence (E9Q7P2 1-2199)": "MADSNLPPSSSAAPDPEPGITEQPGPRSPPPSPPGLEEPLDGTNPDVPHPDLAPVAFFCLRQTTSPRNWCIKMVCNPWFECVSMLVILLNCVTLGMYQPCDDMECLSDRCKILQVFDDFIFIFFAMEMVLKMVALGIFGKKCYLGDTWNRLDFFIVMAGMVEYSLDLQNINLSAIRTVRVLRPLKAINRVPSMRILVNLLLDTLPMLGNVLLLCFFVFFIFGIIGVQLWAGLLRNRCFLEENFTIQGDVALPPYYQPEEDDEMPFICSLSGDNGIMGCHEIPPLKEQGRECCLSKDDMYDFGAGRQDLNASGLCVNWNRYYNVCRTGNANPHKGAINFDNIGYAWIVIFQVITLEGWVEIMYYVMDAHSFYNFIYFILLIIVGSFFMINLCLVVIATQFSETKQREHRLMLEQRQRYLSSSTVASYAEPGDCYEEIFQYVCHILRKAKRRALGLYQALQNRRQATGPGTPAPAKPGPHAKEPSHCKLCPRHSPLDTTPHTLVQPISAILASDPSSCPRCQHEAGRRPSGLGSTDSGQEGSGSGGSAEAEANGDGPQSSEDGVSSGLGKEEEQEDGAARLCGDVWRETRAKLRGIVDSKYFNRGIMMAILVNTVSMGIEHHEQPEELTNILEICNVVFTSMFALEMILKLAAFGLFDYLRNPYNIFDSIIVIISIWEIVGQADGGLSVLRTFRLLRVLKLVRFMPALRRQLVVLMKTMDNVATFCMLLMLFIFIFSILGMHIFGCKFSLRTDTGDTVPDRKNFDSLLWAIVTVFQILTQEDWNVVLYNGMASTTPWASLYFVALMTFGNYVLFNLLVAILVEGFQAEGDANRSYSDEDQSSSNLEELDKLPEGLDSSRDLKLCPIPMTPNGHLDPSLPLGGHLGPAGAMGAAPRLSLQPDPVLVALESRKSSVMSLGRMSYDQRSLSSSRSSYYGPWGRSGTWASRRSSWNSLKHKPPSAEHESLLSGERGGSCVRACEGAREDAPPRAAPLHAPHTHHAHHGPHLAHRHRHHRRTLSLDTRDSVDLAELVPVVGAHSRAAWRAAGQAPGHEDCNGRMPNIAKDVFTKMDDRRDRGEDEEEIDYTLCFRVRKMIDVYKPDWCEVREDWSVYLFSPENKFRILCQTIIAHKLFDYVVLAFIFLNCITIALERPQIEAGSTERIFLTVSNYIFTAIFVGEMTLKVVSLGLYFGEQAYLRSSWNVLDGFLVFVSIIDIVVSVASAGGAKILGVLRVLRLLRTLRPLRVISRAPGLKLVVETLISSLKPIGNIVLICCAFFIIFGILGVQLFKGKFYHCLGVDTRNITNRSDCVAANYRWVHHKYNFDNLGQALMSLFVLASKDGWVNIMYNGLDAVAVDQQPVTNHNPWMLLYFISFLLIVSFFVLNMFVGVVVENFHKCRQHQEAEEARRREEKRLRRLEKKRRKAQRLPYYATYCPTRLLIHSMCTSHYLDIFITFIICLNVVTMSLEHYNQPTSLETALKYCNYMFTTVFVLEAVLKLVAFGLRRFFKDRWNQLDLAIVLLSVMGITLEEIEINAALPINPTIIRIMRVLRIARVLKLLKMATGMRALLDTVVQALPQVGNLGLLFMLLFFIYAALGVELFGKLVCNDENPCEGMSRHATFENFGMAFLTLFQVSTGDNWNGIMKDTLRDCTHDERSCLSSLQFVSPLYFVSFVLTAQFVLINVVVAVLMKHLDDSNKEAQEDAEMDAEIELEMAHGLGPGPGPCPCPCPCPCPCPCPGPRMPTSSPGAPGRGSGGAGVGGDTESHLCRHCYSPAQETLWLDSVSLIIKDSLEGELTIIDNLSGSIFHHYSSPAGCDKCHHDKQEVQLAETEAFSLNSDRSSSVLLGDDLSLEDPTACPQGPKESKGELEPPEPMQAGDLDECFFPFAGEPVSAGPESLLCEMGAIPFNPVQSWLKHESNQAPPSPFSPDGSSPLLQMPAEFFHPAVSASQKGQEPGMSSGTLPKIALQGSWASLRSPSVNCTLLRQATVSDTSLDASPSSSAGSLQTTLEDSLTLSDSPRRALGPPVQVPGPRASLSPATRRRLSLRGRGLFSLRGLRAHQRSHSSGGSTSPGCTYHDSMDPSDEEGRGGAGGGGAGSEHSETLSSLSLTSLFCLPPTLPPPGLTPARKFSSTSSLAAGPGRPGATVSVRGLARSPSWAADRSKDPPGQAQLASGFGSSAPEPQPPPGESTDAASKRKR", "test": "Western blot of Cav3.3 protein levels in whole trigeminal ganglia lysates after peptide injection", "format": "in vivo", "details": "FRICT-ION mice, whole TG lysates, four hours post injection, normalized to actin", "procedure": "Twelve male and female mice (8-10 weeks old, six mice per sex) were subject to the FRICT-ION model of trigeminal neuropathic pain. Three mice of each sex were administered TAT-C3P peptide (SEQ ID NO:1) and the remaining mice were administered TAT-C3D (SEQ ID NO:2) following the methods described above. Four hours post injection, mice were euthanized with pentobarbital (50 mg/kg) and both ipsilateral and contralateral trigeminal ganglia (TG) were removed. TG were washed immediately in PBS and stored at −80° C.\nThe TG for each of the four groups were pooled together (n=3) for protein extraction and homogenized using a pestle and 500 μL of 1×RIPA buffer (Thermo Fisher Scientific, Inc., Waltham, Mass.). Samples were put on a rocking shaker for two hours and then centrifuged, and supernatant removed to a new tube. Samples were assayed for total protein. […] Samples were then prepared for electrophoresis by mixing with 2× sample buffer and boiling for five minutes at 100° C. for denaturation.\nProteins were loaded on a 12% Tris-Glycine polyacrylamide gradient gel (Bio-Rad Laboratories, Inc., Hercules, Calif.) and transferred to a PVDF membrane (MilliporeSigma, Burlington, Mass.). […] Signal intensity was analyzed using ImageJ (Schneider et al., Nature Methods 9:671-675 (2012)) for comparisons.\nMale and female mice were analyzed separately. […]"}, "Cav3.3 channels": {"target": "Cav3.3 channels (Homo sapiens, UniProt Q9P0X4)", "sequence (Q9P0X4 whole entry)": "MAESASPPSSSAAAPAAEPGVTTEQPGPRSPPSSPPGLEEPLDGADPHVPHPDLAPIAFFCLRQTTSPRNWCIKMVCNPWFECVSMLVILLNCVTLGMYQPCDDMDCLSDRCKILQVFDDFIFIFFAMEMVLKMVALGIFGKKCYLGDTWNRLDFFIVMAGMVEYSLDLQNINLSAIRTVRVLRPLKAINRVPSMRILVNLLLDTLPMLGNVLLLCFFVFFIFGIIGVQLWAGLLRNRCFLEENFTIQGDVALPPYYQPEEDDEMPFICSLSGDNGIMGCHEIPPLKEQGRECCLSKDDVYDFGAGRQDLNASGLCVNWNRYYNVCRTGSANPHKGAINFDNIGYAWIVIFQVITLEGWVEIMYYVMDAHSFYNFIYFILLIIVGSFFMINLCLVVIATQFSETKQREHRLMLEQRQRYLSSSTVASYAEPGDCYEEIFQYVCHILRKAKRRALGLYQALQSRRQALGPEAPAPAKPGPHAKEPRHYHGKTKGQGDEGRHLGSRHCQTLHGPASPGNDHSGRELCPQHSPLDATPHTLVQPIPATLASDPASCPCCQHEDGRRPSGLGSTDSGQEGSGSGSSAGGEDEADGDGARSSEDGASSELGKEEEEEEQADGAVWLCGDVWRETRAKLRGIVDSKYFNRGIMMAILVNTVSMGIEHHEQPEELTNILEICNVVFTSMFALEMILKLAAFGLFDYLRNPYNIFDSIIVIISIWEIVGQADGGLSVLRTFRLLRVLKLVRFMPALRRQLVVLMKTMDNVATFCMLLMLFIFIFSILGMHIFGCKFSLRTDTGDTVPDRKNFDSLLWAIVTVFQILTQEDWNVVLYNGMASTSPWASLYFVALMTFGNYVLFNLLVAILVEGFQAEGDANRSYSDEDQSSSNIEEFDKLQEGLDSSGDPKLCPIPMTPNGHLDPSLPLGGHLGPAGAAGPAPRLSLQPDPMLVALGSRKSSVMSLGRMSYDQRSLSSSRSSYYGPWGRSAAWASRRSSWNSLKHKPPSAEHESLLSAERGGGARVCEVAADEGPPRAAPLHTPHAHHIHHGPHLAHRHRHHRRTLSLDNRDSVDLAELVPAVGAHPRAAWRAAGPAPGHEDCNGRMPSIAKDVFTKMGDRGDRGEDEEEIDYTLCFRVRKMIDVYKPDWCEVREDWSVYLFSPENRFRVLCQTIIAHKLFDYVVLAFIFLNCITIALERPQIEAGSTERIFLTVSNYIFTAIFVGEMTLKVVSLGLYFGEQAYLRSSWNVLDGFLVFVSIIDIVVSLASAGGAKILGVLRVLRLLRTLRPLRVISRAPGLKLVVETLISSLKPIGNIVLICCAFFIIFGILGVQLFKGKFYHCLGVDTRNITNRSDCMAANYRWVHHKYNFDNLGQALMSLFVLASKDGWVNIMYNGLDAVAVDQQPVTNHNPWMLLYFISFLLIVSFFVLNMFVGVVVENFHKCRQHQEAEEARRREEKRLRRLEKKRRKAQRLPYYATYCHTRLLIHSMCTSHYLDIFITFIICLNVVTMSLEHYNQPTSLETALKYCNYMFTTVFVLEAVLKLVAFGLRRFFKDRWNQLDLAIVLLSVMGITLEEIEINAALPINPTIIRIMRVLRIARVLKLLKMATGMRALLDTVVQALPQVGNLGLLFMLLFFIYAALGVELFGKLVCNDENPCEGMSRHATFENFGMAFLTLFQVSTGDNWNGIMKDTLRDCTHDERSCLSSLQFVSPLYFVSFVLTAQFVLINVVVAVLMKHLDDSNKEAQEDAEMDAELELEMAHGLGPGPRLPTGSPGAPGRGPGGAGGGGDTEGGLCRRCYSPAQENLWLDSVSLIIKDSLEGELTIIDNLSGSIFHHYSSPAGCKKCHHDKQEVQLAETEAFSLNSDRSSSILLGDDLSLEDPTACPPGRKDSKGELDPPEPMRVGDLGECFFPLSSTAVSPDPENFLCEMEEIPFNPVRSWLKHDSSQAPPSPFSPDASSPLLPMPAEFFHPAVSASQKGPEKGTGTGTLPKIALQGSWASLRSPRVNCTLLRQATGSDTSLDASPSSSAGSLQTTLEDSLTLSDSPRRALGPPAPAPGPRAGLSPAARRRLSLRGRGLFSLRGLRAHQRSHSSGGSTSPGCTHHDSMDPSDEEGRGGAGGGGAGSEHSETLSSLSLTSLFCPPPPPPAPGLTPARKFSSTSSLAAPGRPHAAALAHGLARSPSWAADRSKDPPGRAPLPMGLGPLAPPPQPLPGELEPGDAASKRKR", "details": "cited from earlier work"}},
  "note": "Ends that are not written are not given here.",
  "data": [
    {"compound": "CCC1(C)CC(=O)NC1=O", "note": "(stereo not drawn) [ethosuximide]", "values": [
      {"measurement": "outcome of clinical trial for neuropathic pain", "setting": "T-type Ca2+ channels", "result": "halted due to adverse events"}
    ]},
    {"compound": "GRKKRRQRRRPQEESNKEAREDAELDAEIELEMAQG [TAT-C3P]", "values": [
      {"measurement": "CNS penetration following intraperitoneal injection", "setting": "[1]; FRICT-ION mice", "result": "penetrates the central nervous system"},
      {"measurement": "side effects", "setting": "[2]", "result": "no major side effects"}
    ]},
    {"compound": "GRKKRRQRRRPQEESNKEAREDAELDAEIELEMAQGHHHHHH [His-tagged TAT-C3P]", "values": [
      {"measurement": "His-tag bands in TG and medullary tissues", "setting": "[1]; male FRICT-ION mice, tissues harvested four hours post-injection", "result": "Bands were detected"}
    ]},
    {"compound": "TAT-C3D: control peptide that does not block Cav3.3 channels, GRKKRRQRRRPQAVSSPARSGEPLHALSPRGTARSP (GRKKRRQRRRPQAVSSPARSGEPLHALSPRGTARSP; unkown; TAT-C3D (1)..(36))", "values": [
      {"measurement": "Cav3.3 protein levels in the trigeminal ganglia", "setting": "Cav3.3", "result": "strongly present"},
      {"measurement": "inhibition of Cav3.3", "setting": "Cav3.3 channels", "result": "does not inhibit Cav3.3"}
    ]}
  ]
}
